Test results reported in US10253039B2, “Inhibitors of bacterial DNA gyrase with efficacy against gram-negative bacteria” (priority 2014, dated 2019).
Converted amounts (≈) assume the structure as drawn.

Experiments:
Format in all cases: cell-based
[1] = tested on: Klebsiella pneumoniae subsp. pneumoniae; test: MIC, 20-strain panel; settings: E: Klebsiella pneumoniae subsp. pneumoniae
Procedure: (§1) A microdilution method in 96-well plates was used and the MIC protocol established by the Clinical Laboratory Standards Institute was followed. From a growing subculture, a 1:10000 inoculum of each strain in Luria-Bertani media was prepared and aliquoted 100 μL in 4 columns of wells, except for the top row wells, which contained 200 μL of inoculum. A solution of gyramide C2 was aliquoted into 3 of the wells containing 200 μL and DMSO was added to the 4th well. The liquid in each of wells was mixed with a multi-channel pipet and 100 μL was transferred to the next well and mixed. The 2-fold dilution was continued down the 96-well plate until 100 μL was left, which was discarded. The plates were incubated at 37° C. with shaking for 16-18 hours. The MIC was determined as the lowest concentration that inhibited growth and had no turbidity by visual inspection.
(§2) Minimum inhibitory concentrations of various gyramide compounds against 20 strains of bacteria were determined using the procedure described above.

[2] = tested on: Staphylococcus epidermidis; test: MIC, 20-strain panel
Procedure: as §1, §2

[3] = tested on: Staphylococcus aureus subsp. aureus; test: MIC, 20-strain panel; settings: H: Staphylococcus aureus subsp. aureus, read-out: MIC
Procedure: as §1, §2

E. coli MG1655 = test: MIC, 20-strain panel; settings: Escherichia coli, MG1655, A: E. coli MG1655; read-out: MIC
Procedure: as §1, §2

E. coli JW5503 (deltolC) = test: MIC, 20-strain panel; settings: Escherichia coli, C: E. coli JW5503 (deltolC)
Procedure: as §1, §2

Streptococcus pyogenes = test: MIC, 20-strain panel
Procedure: as §1, §2

Shigella flexneri = test: MIC, 20-strain panel; settings: G: Shigella flexneri
Procedure: as §1, §2

[4] = tested on: Salmonella enterica subsp. enterica typhimurium; test: MIC, 20-strain panel; settings: F: Salmonella enterica subsp. enterica Typhimurium
Procedure: as §1, §2

Streptococcus agalactiae = test: MIC, 20-strain panel
Procedure: as §1, §2

[5] = tested on: Staphylococcus saprophyticus subsp. saprophyticus; test: MIC, 20-strain panel
Procedure: as §1, §2

E. coli BW25113 = test: MIC, microdilution in 96-well plates; settings: Escherichia coli, BW25113, B: E. coli BW25113; read-out: MIC
Procedure: as §1, §2

Edwardsiella tarda = test: MIC, microdilution in 96-well plates; settings: D: Edwardsiella tarda
Procedure: as §1, §2

For `CC(=O)c1cc(S(=O)(=O)N[C@@H]2CCN(Cc3ccc(OC(C)C)cc3)C2)ccc1C` [Compound 1], the MIC [1] was over 8 µg/mL, the MIC [2] was over 8 µg/mL and the MIC [3] was over 8 µg/mL. The MIC (E. coli MG1655) was over 8 µg/mL, the MIC (E. coli JW5503 (deltolC)) was over 8 µg/mL and the MIC (Streptococcus pyogenes) was over 8 µg/mL. For the same compound, the MIC (Shigella flexneri) was over 8 µg/mL, the MIC [4] was over 8 µg/mL and the MIC (Streptococcus agalactiae) was over 8 µg/mL. For the same compound, the MIC [5] was over 8 µg/mL, the MIC (E. coli BW25113) was over 8 µg/mL and the MIC (Edwardsiella tarda) was over 8 µg/mL.

With `N#Cc1cccc(S(=O)(=O)N[C@@H]2CCN(Cc3ccc(OC(F)F)cc3)C2)c1` [Compound 2] the MIC [1] was over 8 µg/mL, the MIC [2] was over 8 µg/mL and the MIC [3] was over 8 µg/mL. The MIC (E. coli MG1655) was over 8 µg/mL, the MIC (E. coli JW5503 (deltolC)) was 8 µg/mL (≈ 19.6 µM) and the MIC (Streptococcus pyogenes) was over 8 µg/mL. It also gave an MIC (Shigella flexneri) of over 8 µg/mL, an MIC [4] of over 8 µg/mL and an MIC (Streptococcus agalactiae) of over 8 µg/mL. For the same compound, the MIC [5] was over 8 µg/mL, the MIC (E. coli BW25113) was over 8 µg/mL and the MIC (Edwardsiella tarda) was over 8 µg/mL.

With `O=S(=O)(N[C@@H]1CCN(Cc2ccc(-n3ccnn3)cc2)C1)c1cccc(C(F)(F)F)c1` [Compound 3] the MIC [1] was over 8 µg/mL, the MIC [2] was over 8 µg/mL and the MIC [3] was over 8 µg/mL. For the same compound, the MIC (E. coli MG1655) was over 8 µg/mL, the MIC (E. coli JW5503 (deltolC)) was 4 µg/mL (≈ 8.86 µM) and the MIC (Streptococcus pyogenes) was over 8 µg/mL. For the same compound, the MIC (Shigella flexneri) was over 8 µg/mL, the MIC [4] was over 8 µg/mL and the MIC (Streptococcus agalactiae) was over 8 µg/mL. The MIC [5] was over 8 µg/mL, the MIC (E. coli BW25113) was over 8 µg/mL and the MIC (Edwardsiella tarda) was over 8 µg/mL.

`CC(C)Oc1ccc(CN2CC[C@@H](NS(=O)(=O)c3cc(C(F)(F)F)ccc3F)C2)cc1` [Compound 4] gave an MIC [1] of over 8 µg/mL, an MIC [2] of over 8 µg/mL and an MIC [3] of over 8 µg/mL. The MIC (E. coli MG1655) was over 8 µg/mL, the MIC (E. coli JW5503 (deltolC)) was 0.5 µg/mL (≈ 1.09 µM) and the MIC (Streptococcus pyogenes) was over 8 µg/mL. It also gave an MIC (Shigella flexneri) of over 8 µg/mL, an MIC [4] of over 8 µg/mL and an MIC (Streptococcus agalactiae) of over 8 µg/mL. The MIC [5] was over 8 µg/mL, the MIC (E. coli BW25113) was over 8 µg/mL and the MIC (Edwardsiella tarda) was over 8 µg/mL.

For `O=S(=O)(N[C@@H]1CCN(Cc2ccc(OC3CCC3)cc2)C1)c1cccc(C(F)(F)F)c1` [Compound 5], the MIC [1] was over 8 µg/mL, the MIC [2] was over 8 µg/mL and the MIC [3] was over 8 µg/mL. For the same compound, the MIC (E. coli MG1655) was over 8 µg/mL, the MIC (E. coli JW5503 (deltolC)) was 0.125 µg/mL (≈ 0.275 µM) and the MIC (Streptococcus pyogenes) was over 8 µg/mL. It also gave an MIC (Shigella flexneri) of over 8 µg/mL, an MIC [4] of 8 µg/mL (≈ 17.6 µM) and an MIC (Streptococcus agalactiae) of over 8 µg/mL. The MIC [5] was over 8 µg/mL, the MIC (E. coli BW25113) was about 8 µg/mL (≈ 17.6 µM) and the MIC (Edwardsiella tarda) was over 8 µg/mL.

In the case of `O=S(=O)(N[C@@H]1CCN(Cc2ccc(OC(F)(F)F)cc2)C1)c1cccc(C(F)(F)F)c1` [Compound 6], the MIC [1] is reported as over 8 µg/mL, the MIC [2] is reported as over 8 µg/mL and the MIC [3] is reported as over 8 µg/mL. It also gave an MIC (E. coli MG1655) of over 8 µg/mL, an MIC (E. coli JW5503 (deltolC)) of 4 µg/mL (≈ 8.54 µM) and an MIC (Streptococcus pyogenes) of over 8 µg/mL. It also gave an MIC (Shigella flexneri) of over 8 µg/mL, an MIC [4] of over 8 µg/mL and an MIC (Streptococcus agalactiae) of over 8 µg/mL. For the same compound, the MIC [5] was over 8 µg/mL, the MIC (E. coli BW25113) was over 8 µg/mL and the MIC (Edwardsiella tarda) was over 8 µg/mL.

`N#Cc1cccc(S(=O)(=O)N[C@@H]2CCN(Cc3ccc(-n4ccnn4)cc3)C2)c1` [Compound 7] gave an MIC [1] of over 8 µg/mL, an MIC [2] of over 8 µg/mL and an MIC [3] of over 8 µg/mL. For the same compound, the MIC (E. coli MG1655) was over 8 µg/mL, the MIC (E. coli JW5503 (deltolC)) was 8 µg/mL (≈ 19.6 µM) and the MIC (Streptococcus pyogenes) was over 8 µg/mL. It also gave an MIC (Shigella flexneri) of over 8 µg/mL, an MIC [4] of over 8 µg/mL and an MIC (Streptococcus agalactiae) of over 8 µg/mL. The MIC [5] was over 8 µg/mL, the MIC (E. coli BW25113) was over 8 µg/mL and the MIC (Edwardsiella tarda) was over 8 µg/mL.

In the case of `N#Cc1cccc(S(=O)(=O)N[C@@H]2CCN(Cc3ccc(OCC(F)F)cc3)C2)c1` [Compound 8], the MIC [1] is reported as over 8 µg/mL, the MIC [2] is reported as over 8 µg/mL and the MIC [3] is reported as over 8 µg/mL. The MIC (E. coli MG1655) was over 8 µg/mL, the MIC (E. coli JW5503 (deltolC)) was 2 µg/mL (≈ 4.75 µM) and the MIC (Streptococcus pyogenes) was over 8 µg/mL. The MIC (Shigella flexneri) was over 8 µg/mL, the MIC [4] was 8 µg/mL (≈ 19 µM) and the MIC (Streptococcus agalactiae) was over 8 µg/mL. For the same compound, the MIC [5] was over 8 µg/mL, the MIC (E. coli BW25113) was over 8 µg/mL and the MIC (Edwardsiella tarda) was over 8 µg/mL.

Compound `N#Cc1cccc(S(=O)(=O)N[C@@H]2CCN(Cc3ccc4c(c3)OCCO4)C2)c1` [Compound 9] has an MIC [1] of over 8 µg/mL, an MIC [2] of over 8 µg/mL and an MIC [3] of over 8 µg/mL. For the same compound, the MIC (E. coli MG1655) was over 8 µg/mL, the MIC (E. coli JW5503 (deltolC)) was over 8 µg/mL and the MIC (Streptococcus pyogenes) was over 8 µg/mL. It also gave an MIC (Shigella flexneri) of over 8 µg/mL, an MIC [4] of over 8 µg/mL and an MIC (Streptococcus agalactiae) of over 8 µg/mL. For the same compound, the MIC [5] was over 8 µg/mL, the MIC (E. coli BW25113) was over 8 µg/mL and the MIC (Edwardsiella tarda) was over 8 µg/mL.

Work on `CC(C)Oc1ccc(CN2CC[C@@H](NS(=O)(=O)c3cc(C#N)ccc3Cl)C2)cc1` [Compound 10] yielded an MIC [1] of over 8 µg/mL, an MIC [2] of over 8 µg/mL and an MIC [3] of over 8 µg/mL. For the same compound, the MIC (E. coli MG1655) was over 8 µg/mL, the MIC (E. coli JW5503 (deltolC)) was 0.25 µg/mL (≈ 0.576 µM) and the MIC (Streptococcus pyogenes) was over 8 µg/mL. For the same compound, the MIC (Shigella flexneri) was over 8 µg/mL, the MIC [4] was 8 µg/mL (≈ 18.4 µM) and the MIC (Streptococcus agalactiae) was over 8 µg/mL. For the same compound, the MIC [5] was over 8 µg/mL, the MIC (E. coli BW25113) was over 8 µg/mL and the MIC (Edwardsiella tarda) was over 8 µg/mL.
